Here are results for eleven compounds from patent US8735556B2, “Sensitive and generic antibodies and multiple applications” (Randox Laboratories Limited, priority 2011, dated 2014).

Each structure is given as a SMILES string. Values after ≈ are worked out from the molar mass of the structure shown. Read-outs that look alike come from different tables or passages of the source.

Series [1] concerns antiserum raised to Immunogen II. In words: Competitive ELISA, antibody characterisation. The conditions noted are these: for % Cross-reactivity: CR based on 100% for carbamazepine, IC50 carbamazepine/IC50 CR x 100; for IC50: antiserum raised to Immunogen II, detecting agent derived from Hapten-A, competitive assay format. Type of series: binding, sheep. The protocol: The antibody titre is evaluated by coating a microtitre plate (Thermo Fisher Scientific NUNC, 468667) with antibody (125 μl/well) in coating buffer (10 mM Tris pH 8.5) at 37° C. for 2 hours. The plate is then washed 4 times over 10 minutes with working strength TBST. 50 μl of sample/standard (Carbamazepine, Sigma C4024) is added to the appropriate wells in triplicate, followed by 75 μl of hapten-HRP conjugate and incubated at 25° C. for 1 hour. The plate is then washed and 125 μl of TMB (Randox, 4380-15) added to each well and left at room temperature for 20 mins in the dark. The reaction is stopped using 125 μl of 0.2M sulphuric acid. The absorbances are read at 450 nm with an ELISA microplate reader (BIO-TEK Instruments, Elx800) and the means calculated. Antibody sensitivity can then be determined. […] The immunogenic mixture (1 ml) was administered to adult sheep on a monthly basis to provide target-specific polyclonal antisera. IgG was extracted from the antisera via caprylic acid/ammonium sulphate precipitation of immunoglobulin. A microtitre plate (Thermo Fisher Scientific NUNC, 468667) was coated with antibody (125 μl/well) in coating buffer (10 mM Tris pH 8.5) at 37° C. for 2 hours. […] The plate was then washed and 125 μl of TMB (Randox, 4380-15) was added to each well and left at room temperature for 20 mins in the dark. The reaction was stopped using 125 μl of 0.2M sulphuric acid. The absorbances were read at 450 nm with an ELISA microplate reader (BIO-TEK Instruments, Elx800) and the means calculated. Antibody specificity and sensitivity were then determined. […] The results of this study are presented in Table 2, cross-reactivity being calculated according to the following formula: % CR=IC50. carbamazepine/IC50. CR×100 […] CR is the concentration of carbamazepine/metabolites/structurally-related molecules that causes 50% displacement of signal.
On the technique in general: In an ELISA, binding on a coated surface is turned into a signal by an enzyme label.

In series [2] the test system is monoclonal antibody of CBZ immunoassay. As to conditions: cited from earlier work.
Series [3] relates to Roche Diagnostics Online TDM carbamazepine immunoassay. As to conditions: at 6 μg/ml of carbamazepine; cited from earlier work.
The subject of series [4] is Beckman Coulter (BC) carbamazepine immunoassay. As to conditions: Beckman Coulter BC analyzers; cited from earlier work.
The test system of series [5] is Siemens ADVIA carbamazepine immunoassay. As to conditions: cited from earlier work.
Series [6] relates to Abbott Diagnostics Axsym carbamazepine immunoassay. The conditions noted are these: cited from earlier work.
For series [7] the following is noted: cited from earlier work.
For series [8] the following is noted: cited from earlier work. The source holds these as a separate data set.

Turning to `NC(=O)N1c2ccccc2CC(O)c2ccccc21` (centres unmarked) [Hapten 10-OH-CBZ, 10,11-dihydro-10-hydroxycarbazepine], in series [1], the “% Cross-reactivity” value was 67.40% and the 50% inhibitory concentration (IC50) stood at 3.167 ng/mL (≈ 0.0125 µM). Also, the Cross-reactivity entry in series [2] is “negligible”. The Cross-reactivity in series [3] is 1.2%.

For `CN(C)CCC=C1c2ccccc2CCc2ccccc21` [Amitriptyline, amitriptyline], the “% Cross-reactivity” value in series [1] was <<1.10%. Also, the IC50 in series [1] was >>200 ng/ml. Besides, the Cross-reactivity is listed as 18.6% in series [4] and 5.2% in series [5].

Regarding `c1ccc2c(c1)Nc1ccccc1S2` [Phenothiazine], the Cross-reactivity in series [4] is on record as 8.6%.

For `CNCCCN1c2ccccc2CCc2ccccc21` [Desipramine], the Cross-reactivity result in series [6] is recorded as “≦540.0%”.

With `CN1C(=O)CN=C(c2ccccc2)c2cc(Cl)ccc21` [Diazepam], the Cross-reactivity in series [4] is on record as 4.8%.

As to `NC(=O)N1c2ccccc2C2OC2c2ccccc21` (centres unmarked) [CBZ-E, carbamazepine-10,11-epoxide], the “% Cross-reactivity” value in series [1] amounted to 68.30%. In addition, in series [1], the half-maximal inhibitory concentration (IC50) stood at 3.125 ng/mL (≈ 0.0124 µM). In addition, the Cross-reactivity was 7.4% in series [4], 21.8% in series [5], 14.0% in series [3] and “≦83.0%” in series [6].

For `CN(C)CCCN1c2ccccc2CCc2ccccc21` [Imipramine, imipramine], in series [1], the “% Cross-reactivity” value was <<1.10% and the IC50 was >>200 ng/ml. Also, the Cross-reactivity in series [4] is on record as 5.6%.

`NC(=O)N1c2ccccc2C(O)C(O)c2ccccc21` (centres unmarked) [10,11-diOH-CBZ, 10,11-dihydro-10,11-dihydroxycarbamazepine]: in series [1], the “% Cross-reactivity” value was 14.00% and the IC50 turned out to be 15.269 ng/mL (≈ 0.0565 µM). The Cross-reactivity result in series [2] is given as “negligible”. Also, in series [7] (of CBZ, urine), the “major urinary excretory product” value is 80%.

For `NC(=O)N1c2ccccc2CC(=O)c2ccccc21` [Oxcarbazepine, oxcarbazepine], in series [1], the “% Cross-reactivity” value is 299.00% and the half-maximal inhibitory concentration (IC50) is 0.714 ng/mL (≈ 0.00283 µM). In addition, the Cross-reactivity entry in series [2] was “negligible”. Besides, the Cross-reactivity in series [3] is recorded as 1.0%.

For the compound `NC(=O)N1c2ccccc2C=Cc2ccccc21` [CBZ, carbamazepine], the “% Cross-reactivity” value in series [1] stood at 100.00%. For the same compound, the 50% inhibitory concentration (IC50) in series [1] came out at 2.135 ng/mL (≈ 0.00904 µM). The half-life in series [7] (in patients) was 18 to 65 h. For the same compound, the results for the toxic value in series [8] (free carbamazepine) and in series [8] (total carbamazepine) were more than 4.00 µg/mL and “greater than 12.00 μg/ml”, respectively.

As for `CNCCC=C1c2ccccc2CCc2ccccc21` [Nortryptyline], the figures for the Cross-reactivity in series [4] and in series [5] were 17.2% and 5.2%, respectively.

Usually IC50 stands for the point on the concentration scale where inhibition reaches its midpoint. Usually half-life stands for the time in which the quantity being followed falls by half.
